Measured values reported in PubChem BioAssay (NCI).
“And” between values parts separate entries of the source, which are not always exact repeats. Equal entries are not always repeated.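 48-hour exposure; five concentrations; linearly interpolated endpoints. GI50: concentration for 50% inhibition of growth. TGI marks complete inhibition of growth.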

Tests used:
Test in all cases: NCI-60 cell line screen, 48 h
COLO 205 colon = system: COLO 205 colon
DMS 273 small cell lung = system: DMS 273 small cell lung
HCC-2998 colon = system: HCC-2998 colon
HOP-18 NSCLC = system: HOP-18 NSCLC
IGROV1 ovarian = system: IGROV1 ovarian
KM12 colon = system: KM12 colon
MDA-MB-435 = system: MDA-MB-435
NCI/ADR-RES ovarian = system: NCI/ADR-RES ovarian
OVCAR-4 ovarian = system: OVCAR-4 ovarian
OVCAR-5 ovarian = system: OVCAR-5 ovarian
RXF 393 renal = system: RXF 393 renal
SK-MEL-28 melanoma = system: SK-MEL-28 melanoma
SN12C renal = system: SN12C renal
TK-10 renal = system: TK-10 renal
U251 CNS = system: U251 CNS
UACC-62 melanoma = system: UACC-62 melanoma

CN1C(=O)CC2(C)c3cc(O)ccc3N(C)C12 (stereo not given)
GI50 (COLO 205 colon): 24.1 µM | TGI (COLO 205 colon): 75 µM and 63.1 µM | TGI (DMS 273 small cell lung): > 100 µM | GI50 (HCC-2998 colon): > 75 µM | TGI (HCC-2998 colon): > 100 µM | TGI (HOP-18 NSCLC): > 100 µM | TGI (IGROV1 ovarian): 75 µM and 68.8 µM | GI50 (KM12 colon): 42.6 µM | TGI (KM12 colon): 75 µM and 42.7 µM | GI50 (MDA-MB-435): 9.51 µM | TGI (MDA-MB-435): 19.7 µM and 28.4 µM | GI50 (NCI/ADR-RES ovarian): 17.2 µM | TGI (NCI/ADR-RES ovarian): 75 µM and 34.3 µM | TGI (OVCAR-4 ovarian): 10.6 µM | TGI (OVCAR-5 ovarian): 59.6 µM | GI50 (RXF 393 renal): 48.4 µM | TGI (RXF 393 renal): 75 µM and 66.5 µM | GI50 (SK-MEL-28 melanoma): 11.8 µM | TGI (SK-MEL-28 melanoma): 21.9 µM and > 79.2 µM | TGI (SN12C renal): 29.6 µM and 23.3 µM | GI50 (TK-10 renal): > 75 µM | TGI (TK-10 renal): > 100 µM | GI50 (U251 CNS): 14.4 µM | TGI (U251 CNS): 25 µM and 31.2 µM | TGI (UACC-62 melanoma): 38.6 µM and 45.5 µM
